From publication PMC3851587 (Molecular and biochemical parasitology, 2013)

Key:
Chimera N1A = assay: [3H]-adenosine uptake in transfected L. donovani cells; assay type: cell-based, Crithidia fasciculata; conditions: labelled compound
Chimera N3A = assay: as above; assay type: cell-based, Crithidia fasciculata; conditions: labelled compound

Structure (SMILES): Nc1ncnc2c1ncn2[C@@H]1O[C@H](CO)[C@@H](O)[C@H]1O [adenosine]
- Km (Chimera N1A): 500 ± 140 nM
- Km (Chimera N3A): 1200 ± 160 nM
